From ChEMBL document CHEMBL1201862, “PubChem BioAssay data set” (2004)
One block for each compound: values may come before it. Activity calls are given as the source filed them.

What was measured:
[1] = Luminescence Cell-Based Dose Retest to Confirm Inhibitors of Cancer Stem Cells. [Related pubchem assays (depositor defined):AID2717, AID2721]; assay type: functional; conditions: Homo sapiens
CAAX prenyl protease 2 [2] = biological target: T1, CAAX prenyl protease 2 (Saccharomyces cerevisiae S288c, UniProt Q03530); test: yeast Rce1 CaaX protease inhibitors, dose response, biochemical, plate reader, dry powder retest (AID 588851)
T1 sequence (Q03530 whole entry): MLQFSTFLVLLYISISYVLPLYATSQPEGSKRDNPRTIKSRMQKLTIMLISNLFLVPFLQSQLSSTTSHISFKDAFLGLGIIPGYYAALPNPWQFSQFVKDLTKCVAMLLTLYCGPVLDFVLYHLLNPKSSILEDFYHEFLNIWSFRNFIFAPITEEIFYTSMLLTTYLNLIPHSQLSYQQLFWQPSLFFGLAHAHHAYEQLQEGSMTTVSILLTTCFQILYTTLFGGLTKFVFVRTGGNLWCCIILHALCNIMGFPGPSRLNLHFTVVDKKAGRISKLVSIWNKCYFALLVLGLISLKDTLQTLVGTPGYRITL

INS1 = test: beta cell apoptosis inhibitors, cytokine rescue, dose response, luminescence, retest (AID 449756); assay type: functional, cell-based; conditions: Rattus norvegicus;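 note: cell death triggered by IL-1 beta plus TNF-alpha plus IFN-gamma mixture; protective hits raise ATP signal compared with cytokine alone wells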
[3] = biological target: Disintegrin and metalloproteinase domain-containing protein 17 (Homo sapiens, UniProt P78536); test: exosite inhibitors of ADAM17, dose response, biochemical (AID 743260)
HEK293 [4] = test: cells; assay type: functional, cell-based; conditions: Homo sapiens
[5] = mammalian cell cytotoxicity, dose response, cytotoxicity control, plate reader, cherry-pick samples (AID 504397); assay type: functional, cell-based
HEK293 [6] = test: cells; assay type: functional, cell-based; conditions: Homo sapiens; remark: listed apart in the source
Cytochrome P450 3A4 = Cytochrome P450 3A4 (Homo sapiens, UniProt P08684);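 note: CYP3A4 tested as one member of a cytochrome P450 panel screen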
CAAX prenyl protease 2 [7] = biological target: T1, CAAX prenyl protease 2; assay type: biochemical
HEK293 [8] = test: NOD1 signaling inhibitors, primary screen, cell-based, luminescence, uHTS (AID 1578); assay type: functional; conditions: Homo sapiens
[9] = ADAM10 protease inhibitors, dose response, selectivity assay for ADAM17 exosite inhibitor project, biochemical, FRET peptide substrate, recombinant human ADAM10 (AID 743259);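 note: ADAM10 enzyme cleaving a FRET peptide substrate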
HEK293 [10] = test: NOD2 signaling inhibitors in MDP-stimulated cells, cell-based, uHTS, luminescence (AID 2001); assay type: functional; conditions: Homo sapiens
[11] = nonselective inhibitors of cellular cAMP signaling, dose response, counter-screen for MC4R biased antagonist project, cell-based, TR-FRET cAMP detection (AID 602305); assay type: functional;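 note: U2OS cells stimulated with forskolin near its EC80 as the cAMP inducer; potency is for inhibition of forskolin-stimulated cAMP signaling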
Melanocortin receptor 4 = Melanocortin receptor 4 (Homo sapiens, UniProt P32245); test: MC4R antagonist potency on cAMP, dose response, cell-based, TR-FRET, biased antagonists (AID 602298); assay type: functional;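 note: antagonist potency against agonist-stimulated cAMP production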
[12] = biological target: Protein disulfide-isomerase (Homo sapiens, UniProt P07237); test: PDI inhibitors, insulin aggregation turbidity, dose response, biochemical, absorbance, cherry-picked samples (AID 602350); assay type: functional
[13] = biological target: T2, High affinity choline transporter 1 (Homo sapiens, UniProt Q9GZV3); test: CHT activators, dose response, cell-based, 10-point CRC, membrane potential dye (AID 602376); assay type: functional
T2 sequence (Q9GZV3 whole entry): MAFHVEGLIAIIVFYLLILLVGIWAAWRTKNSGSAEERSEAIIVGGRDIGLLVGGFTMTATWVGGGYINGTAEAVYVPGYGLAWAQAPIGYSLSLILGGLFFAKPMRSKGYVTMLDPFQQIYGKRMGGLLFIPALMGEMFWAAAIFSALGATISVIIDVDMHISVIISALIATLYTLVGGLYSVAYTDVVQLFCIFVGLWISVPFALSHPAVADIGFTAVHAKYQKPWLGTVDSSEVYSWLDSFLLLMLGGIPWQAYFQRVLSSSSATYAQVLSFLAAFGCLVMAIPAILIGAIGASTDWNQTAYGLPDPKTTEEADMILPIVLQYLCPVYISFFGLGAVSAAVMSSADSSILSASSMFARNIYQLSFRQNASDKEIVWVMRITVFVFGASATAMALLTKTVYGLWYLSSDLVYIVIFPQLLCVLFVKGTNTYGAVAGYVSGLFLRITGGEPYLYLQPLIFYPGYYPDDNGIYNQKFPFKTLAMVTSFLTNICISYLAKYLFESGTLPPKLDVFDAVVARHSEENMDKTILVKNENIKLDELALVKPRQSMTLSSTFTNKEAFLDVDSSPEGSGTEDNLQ

Aurora kinase B = Aurora kinase B (Homo sapiens, UniProt Q96GD4); assay type: functional
[14] = biological target: Vascular endothelial growth factor receptor 2 (Homo sapiens, UniProt P35968); assay type: functional
Aurora kinase A = Aurora kinase A (Homo sapiens, UniProt O14965); assay type: functional;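 note: value from the Navigating the Kinome kinase panel profiling, panel entry STK6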
[15] = biological target: Inhibitor of nuclear factor kappa-B kinase subunit epsilon (Homo sapiens, UniProt Q14164); test: Navigating the Kinome. Panel member name: IKBKE; assay type: functional
[16] = biological target: Cyclin-dependent kinase 19 (Homo sapiens, UniProt Q9BWU1); test: Navigating the Kinome. Panel member name: CDC2L6; assay type: functional
[17] = biological target: Melanin-concentrating hormone receptor 1 (Homo sapiens, UniProt Q99705); test: Late-stage fluorescence-based counterscreen for antagonists of the G-protein coupled receptor 7 (GPR7): cell-based dose response assay to identify antagonists of the melanin-concentrating hormone receptor 1 (MCHR1) Set 6.; assay type: functional
[18] = biological target: Neuropeptides B/W receptor type 1 (Homo sapiens, UniProt P48145); test: GPR7 antagonist potency, late-stage follow-up, cell-based, fluorescence, dose response, set 6 (AID 588583); assay type: functional
[19] = biological target: T3, DNA dC->dU-editing enzyme APOBEC-3G (Homo sapiens, UniProt Q9HC16); test: SAR analysis of small molecule inhibitors of APOBEC3G DNA Deaminase via a fluorescence-based single-stranded DNA deaminase assay - Set 2.; assay type: functional; conditions: read-out: IC50_Mean
[20] = biological target: T4, DNA dC->dU-editing enzyme APOBEC-3A (Homo sapiens, UniProt P31941); test: SAR analysis of small molecule inhibitors of APOBEC3A DNA Deaminase via a fluorescence-based single-stranded DNA deaminase assay - Set 2.; assay type: functional; conditions: read-out: IC50_Mean
[21] = biological target: T3, DNA dC->dU-editing enzyme APOBEC-3G; test: APOBEC3G deaminase inhibitors, SAR follow-up, biochemical, fluorescence, single-stranded DNA substrate (AID 602136); assay type: functional; conditions: read-out: IC50_Mean
[22] = biological target: T4, DNA dC->dU-editing enzyme APOBEC-3A; test: SAR analysis of small molecule inhibitors of APOBEC3A DNA Deaminase via a fluorescence-based single-stranded DNA deaminase assay.; assay type: functional; conditions: read-out: IC50_Mean

T4 sequence (P31941 whole entry): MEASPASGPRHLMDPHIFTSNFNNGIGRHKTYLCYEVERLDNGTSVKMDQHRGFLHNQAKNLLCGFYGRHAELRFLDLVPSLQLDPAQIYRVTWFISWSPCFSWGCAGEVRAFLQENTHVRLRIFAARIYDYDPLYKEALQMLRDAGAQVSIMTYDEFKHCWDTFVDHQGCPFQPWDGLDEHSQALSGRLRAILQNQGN
T3 sequence (Q9HC16 whole entry): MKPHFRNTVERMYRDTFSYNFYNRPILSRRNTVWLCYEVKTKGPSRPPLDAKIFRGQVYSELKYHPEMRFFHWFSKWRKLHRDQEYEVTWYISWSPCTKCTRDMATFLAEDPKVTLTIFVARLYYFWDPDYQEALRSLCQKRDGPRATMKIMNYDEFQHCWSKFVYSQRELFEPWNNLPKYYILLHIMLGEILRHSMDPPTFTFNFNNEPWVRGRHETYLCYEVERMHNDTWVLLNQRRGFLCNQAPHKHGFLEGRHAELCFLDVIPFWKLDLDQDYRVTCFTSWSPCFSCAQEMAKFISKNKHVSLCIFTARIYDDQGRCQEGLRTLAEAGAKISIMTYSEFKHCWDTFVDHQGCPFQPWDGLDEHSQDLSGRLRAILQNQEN
Cytochrome P450 3A4, sequence (P08684 whole entry): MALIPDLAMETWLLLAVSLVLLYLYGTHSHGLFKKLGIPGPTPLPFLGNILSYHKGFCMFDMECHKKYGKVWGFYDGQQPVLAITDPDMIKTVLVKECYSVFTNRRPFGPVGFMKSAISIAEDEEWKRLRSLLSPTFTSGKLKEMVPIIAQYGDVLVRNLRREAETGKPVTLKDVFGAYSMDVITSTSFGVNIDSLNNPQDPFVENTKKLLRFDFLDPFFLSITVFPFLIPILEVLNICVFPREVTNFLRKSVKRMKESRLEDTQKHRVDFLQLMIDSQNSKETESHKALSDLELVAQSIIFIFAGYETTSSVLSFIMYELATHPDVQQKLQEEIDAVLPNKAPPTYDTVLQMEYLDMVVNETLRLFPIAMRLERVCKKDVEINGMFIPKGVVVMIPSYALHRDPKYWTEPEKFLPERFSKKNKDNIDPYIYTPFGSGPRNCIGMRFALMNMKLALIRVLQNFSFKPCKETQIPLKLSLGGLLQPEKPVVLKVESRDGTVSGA
Aurora kinase A, sequence (O14965 whole entry): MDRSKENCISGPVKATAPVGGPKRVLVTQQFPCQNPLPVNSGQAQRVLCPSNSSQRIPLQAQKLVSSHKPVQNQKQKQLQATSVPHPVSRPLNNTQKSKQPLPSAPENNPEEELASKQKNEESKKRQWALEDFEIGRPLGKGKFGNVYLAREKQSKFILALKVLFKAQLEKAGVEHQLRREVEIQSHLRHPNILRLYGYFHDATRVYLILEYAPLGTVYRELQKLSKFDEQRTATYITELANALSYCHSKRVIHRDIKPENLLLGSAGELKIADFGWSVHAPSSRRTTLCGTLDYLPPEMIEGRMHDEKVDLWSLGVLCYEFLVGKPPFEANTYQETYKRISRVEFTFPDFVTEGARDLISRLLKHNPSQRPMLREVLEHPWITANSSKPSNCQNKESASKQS
Melanocortin receptor 4, sequence (P32245 whole entry): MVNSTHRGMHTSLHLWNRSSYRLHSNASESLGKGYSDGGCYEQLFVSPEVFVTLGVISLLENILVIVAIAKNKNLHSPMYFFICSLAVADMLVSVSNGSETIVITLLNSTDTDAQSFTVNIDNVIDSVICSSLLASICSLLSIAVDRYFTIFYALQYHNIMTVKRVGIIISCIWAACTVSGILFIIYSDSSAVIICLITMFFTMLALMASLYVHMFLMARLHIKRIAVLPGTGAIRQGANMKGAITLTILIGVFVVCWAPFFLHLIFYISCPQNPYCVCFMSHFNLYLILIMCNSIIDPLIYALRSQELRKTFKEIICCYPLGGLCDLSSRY
Disintegrin and metalloproteinase domain-containing protein 17, sequence (P78536 whole entry, the tested form may be a part): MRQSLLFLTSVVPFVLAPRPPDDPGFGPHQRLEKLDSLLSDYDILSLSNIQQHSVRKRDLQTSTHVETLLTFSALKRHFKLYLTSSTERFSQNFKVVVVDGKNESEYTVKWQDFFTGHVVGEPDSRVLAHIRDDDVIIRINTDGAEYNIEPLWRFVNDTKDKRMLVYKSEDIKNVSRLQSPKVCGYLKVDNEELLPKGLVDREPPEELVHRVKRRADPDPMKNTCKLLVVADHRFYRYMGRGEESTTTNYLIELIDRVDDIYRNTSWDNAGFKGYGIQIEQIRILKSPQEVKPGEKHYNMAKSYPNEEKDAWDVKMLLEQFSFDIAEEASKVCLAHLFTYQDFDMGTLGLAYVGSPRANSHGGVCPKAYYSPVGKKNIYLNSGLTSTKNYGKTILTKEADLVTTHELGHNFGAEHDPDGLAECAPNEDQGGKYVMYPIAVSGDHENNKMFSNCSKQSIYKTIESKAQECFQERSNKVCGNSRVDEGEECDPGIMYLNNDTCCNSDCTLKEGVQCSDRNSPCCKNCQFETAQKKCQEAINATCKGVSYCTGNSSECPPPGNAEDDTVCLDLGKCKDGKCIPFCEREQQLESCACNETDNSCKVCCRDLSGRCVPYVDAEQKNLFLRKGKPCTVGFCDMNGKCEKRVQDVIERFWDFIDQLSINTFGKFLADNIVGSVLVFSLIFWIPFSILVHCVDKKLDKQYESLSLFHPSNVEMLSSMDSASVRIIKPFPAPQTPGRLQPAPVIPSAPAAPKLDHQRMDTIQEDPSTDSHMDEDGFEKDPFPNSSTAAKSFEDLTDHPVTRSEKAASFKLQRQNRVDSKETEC
Cyclin-dependent kinase 19, sequence (Q9BWU1 whole entry): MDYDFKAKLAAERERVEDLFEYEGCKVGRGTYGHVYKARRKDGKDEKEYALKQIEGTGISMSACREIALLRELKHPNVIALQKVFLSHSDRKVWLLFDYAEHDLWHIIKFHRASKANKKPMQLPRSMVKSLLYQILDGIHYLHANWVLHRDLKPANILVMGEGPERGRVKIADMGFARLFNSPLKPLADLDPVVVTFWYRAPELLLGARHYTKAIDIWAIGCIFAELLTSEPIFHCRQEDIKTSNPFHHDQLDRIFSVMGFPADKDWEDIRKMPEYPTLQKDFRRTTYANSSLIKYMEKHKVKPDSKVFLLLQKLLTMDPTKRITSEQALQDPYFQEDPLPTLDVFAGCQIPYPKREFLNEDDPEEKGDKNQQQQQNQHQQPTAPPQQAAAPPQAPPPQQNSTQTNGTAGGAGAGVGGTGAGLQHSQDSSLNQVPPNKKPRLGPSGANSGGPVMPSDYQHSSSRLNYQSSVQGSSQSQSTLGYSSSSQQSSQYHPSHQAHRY
Inhibitor of nuclear factor kappa-B kinase subunit epsilon, sequence (Q14164 whole entry): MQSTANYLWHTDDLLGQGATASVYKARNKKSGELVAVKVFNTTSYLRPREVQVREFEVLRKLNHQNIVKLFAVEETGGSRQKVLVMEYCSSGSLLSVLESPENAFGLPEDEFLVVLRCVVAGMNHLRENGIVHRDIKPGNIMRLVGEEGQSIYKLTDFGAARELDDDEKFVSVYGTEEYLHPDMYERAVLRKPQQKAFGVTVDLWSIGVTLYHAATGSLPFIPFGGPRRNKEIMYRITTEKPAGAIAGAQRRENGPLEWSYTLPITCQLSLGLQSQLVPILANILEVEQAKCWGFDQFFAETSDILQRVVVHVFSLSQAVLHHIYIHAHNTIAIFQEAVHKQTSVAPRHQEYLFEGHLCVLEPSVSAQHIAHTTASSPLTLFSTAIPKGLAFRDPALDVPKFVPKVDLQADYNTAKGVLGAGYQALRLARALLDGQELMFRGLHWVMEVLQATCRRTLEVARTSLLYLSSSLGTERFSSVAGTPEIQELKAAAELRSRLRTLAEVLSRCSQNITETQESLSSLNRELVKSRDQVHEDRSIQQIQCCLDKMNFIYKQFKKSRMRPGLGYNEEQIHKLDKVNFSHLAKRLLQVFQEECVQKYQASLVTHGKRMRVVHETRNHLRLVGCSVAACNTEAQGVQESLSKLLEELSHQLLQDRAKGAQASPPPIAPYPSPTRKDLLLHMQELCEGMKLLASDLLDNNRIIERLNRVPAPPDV
Melanin-concentrating hormone receptor 1, sequence (Q99705 whole entry): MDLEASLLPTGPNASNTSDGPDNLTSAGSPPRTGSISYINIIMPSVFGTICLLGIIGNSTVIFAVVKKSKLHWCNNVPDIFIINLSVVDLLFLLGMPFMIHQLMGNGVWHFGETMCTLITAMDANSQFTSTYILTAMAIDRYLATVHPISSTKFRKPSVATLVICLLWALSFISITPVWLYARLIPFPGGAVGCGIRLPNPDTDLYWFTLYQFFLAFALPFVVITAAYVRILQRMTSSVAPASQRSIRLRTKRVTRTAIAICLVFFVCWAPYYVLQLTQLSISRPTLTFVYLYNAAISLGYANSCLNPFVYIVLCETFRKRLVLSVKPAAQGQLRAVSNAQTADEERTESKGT
Neuropeptides B/W receptor type 1, sequence (P48145 whole entry): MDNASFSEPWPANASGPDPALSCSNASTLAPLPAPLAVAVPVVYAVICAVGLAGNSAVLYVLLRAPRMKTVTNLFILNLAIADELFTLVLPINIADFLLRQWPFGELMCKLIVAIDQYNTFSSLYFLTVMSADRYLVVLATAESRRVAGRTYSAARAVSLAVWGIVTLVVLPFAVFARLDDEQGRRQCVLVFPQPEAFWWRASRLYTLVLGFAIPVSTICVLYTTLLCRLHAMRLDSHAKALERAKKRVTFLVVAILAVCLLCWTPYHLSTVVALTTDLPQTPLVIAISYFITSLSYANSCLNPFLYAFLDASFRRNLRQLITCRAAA
Aurora kinase B, sequence (Q96GD4 whole entry): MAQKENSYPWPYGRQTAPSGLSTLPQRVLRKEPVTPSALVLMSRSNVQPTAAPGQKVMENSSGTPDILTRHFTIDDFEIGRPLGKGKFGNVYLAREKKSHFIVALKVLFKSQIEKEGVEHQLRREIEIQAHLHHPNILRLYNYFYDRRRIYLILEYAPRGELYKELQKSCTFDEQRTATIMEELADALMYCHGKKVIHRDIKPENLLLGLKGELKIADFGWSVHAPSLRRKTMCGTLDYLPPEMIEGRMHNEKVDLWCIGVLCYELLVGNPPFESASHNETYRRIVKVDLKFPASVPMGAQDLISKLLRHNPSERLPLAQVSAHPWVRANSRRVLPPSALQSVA

Structure (SMILES): Cc1cc(C)n(Cc2ccc(NC(=O)c3ccc(COc4ccccc4Br)cc3)cc2)n1
AC50 [1]: 1.56 µM (active)
AC50 (CAAX prenyl protease 2 [2]): 9.4 µM (active)
AC50 (INS1): 8.58 µM (active)
IC50 [3]: > 69.5 µM (inactive)
IC50 (HEK293 [4]): 4.34 µM (active)
AC50 [5]: 48.8 µM (active)
IC50 (HEK293 [6]): 13.2 µM (active)
AC50 (Cytochrome P450 3A4): 14.1 µM (inconclusive)
AC50 (CAAX prenyl protease 2 [7]): 1.08 µM (active)
EC50 (HEK293 [8]): 8.42 µM (active)
IC50 [9]: > 69.5 µM (inactive)
IC50 (HEK293 [10]): 4.26 µM (active)

Structure (SMILES): Cc1nc2c(sc3nc(N4CCOCC4)c4c(c32)CC(C)(C)OC4)c(-c2ccccc2)c1C(=O)O
AC50 [1]: 0.324 µM (active)
IC50 [11]: > 64.6 µM (inactive)
IC50 (Melanocortin receptor 4): 15.5 µM (inactive)

AC50 [12]: 19.5 µM (active)
Structure (SMILES): CN(C)S(=O)(=O)c1ccc(Cl)c(NC(=O)CSc2nnnn2-c2ccc(O)cc2)c1

Structure (SMILES): CCOC(=O)c1sc(NC(=O)Cc2ccccc2OC)nc1C
EC50 [13]: 22.4 µM (active)

Ki (Aurora kinase B): 0.0794 µM (active)
Ki [14]: > 5.01 µM (inactive)
Ki (Aurora kinase A): > 2 µM (inactive)
Structure (SMILES): Cn1c(SC(C(=O)O)c2ccccc2)nc2ccccc2c1=O (stereo not drawn)

Ki [15]: 1 µM (active)
Ki [16]: > 100 µM (inactive)
Structure (SMILES): Nc1noc2c(CN3CCOCC3)ccc(-c3ccc(NC(=O)Nc4cc(C(F)(F)F)ccc4F)cc3)c12

IC50 [17]: 0.915 µM (active)
IC50 [18]: 0.915 µM (active)
Structure (SMILES): N#CC(C(=O)N1CCCC1)c1c(Cl)cnn(Cc2cccc3ccccc23)c1=O (stereo not drawn)

Structure (SMILES): Cc1cc(C)n2nc(C(=O)NCc3ccccc3)c(Br)c2n1
IC50 [19]: > 99 µM (inactive)
IC50 [20]: 76.8 µM (inactive)

Structure (SMILES): COc1ccc(-c2nnc(SC(C)C(=O)Nc3nc(-c4ccc(F)c(F)c4)cs3)[nH]2)cc1 (stereo not drawn)
IC50 [21]: 40.5 µM (inactive)
IC50 [22]: > 99 µM (inactive)
